What was measured:
Assay type in all cases: in vivo
[1] = test system: Palmer amaranth; assay: Pre-emergence application in Palmer amaranth under greenhouse conditions (Example 1); conditions: 18 days after application
Source text: (§1) The following testing protocol was employed to evaluate the pre-emergence application of herbicides and herbicide combinations as described in the following examples unless otherwise specified. The weed species to be treated were planted in 3.5 inch pots containing a 50:50 silt loam:redi-earth soil mix. Immediately after such planting (i.e., pre-emergence), herbicide was applied to the soil mix at the specified application rate using a track sprayer with a flat even nozzle type, 9501E nozzle size, and spray pressure of 165 kPa. All herbicides were incorporated into the germination zone with 0.25 inch of overhead irrigation three days after spraying. Additional sub-irrigation was provided to achieve adequate soil moisture for germination. After the incorporation of the herbicide(s), the pots were only overhead irrigated as needed. Throughout the test period, temperature was maintained from about 20° C. to about 30° C. and relative humidity was maintained at about 30%. The plants were rated visually and percentage of weed control was determined for each treatment at 19 days after herbicide application.
(§2) Pre-emergence application of several herbicides and herbicide combinations was evaluated in Palmer amaranth under greenhouse conditions. The plants were rated visually and percentage of weed control was determined at 18 days after herbicide application. The herbicides and herbicide combinations evaluated are listed in Table 1-A below together with the corresponding percent control data. The data represent an average value (n=6).
The results of the analysis are reported below in Table 1-B (dicamba+metribuzin), Table 1-C(acetochlor+metribuzin), and Table 1-D (acetochlor+dicamba).

[2] = test system: morning glory; assay: Pre-emergence application in morning glory under greenhouse conditions (Example 2); conditions: 18 days after application
Source text: as §1
as §2, with “morning glory” for “Palmer amaranth”, “2-A” for “1-A”
The results of the analysis are reported below in Table 2-B (dicamba+metribuzin), Table 2-C(acetochlor+metribuzin), and Table 2-D (acetochlor+dicamba).

[3] = test system: wild Proso millet; assay: Pre-emergence application in wild Proso millet under greenhouse conditions (Example 3); conditions: 16 days after application
Source text: as §1
as §2, with “wild Proso millet” for “Palmer amaranth”, “16” for “18”, “3-A” for “1-A”
The results of the analysis are reported below in Table 3-B (dicamba+metribuzin), Table 3-C (acetochlor+metribuzin), and Table 3-D (acetochlor+dicamba).

[4] = test system: sicklepod; assay: Pre-emergence application in sicklepod under greenhouse conditions (Example 4); conditions: 18 days after application
Source text: as §1
as §2, with “sicklepod” for “Palmer amaranth”, “4-A” for “1-A”
The results of the analysis are reported below in Table 4-B (dicamba+metribuzin), Table 4-C(acetochlor+metribuzin), and Table 4-D (acetochlor+dicamba).

[5] = test system: Johnsongrass; assay: Pre-emergence application in Johnsongrass under greenhouse conditions (Example 5); conditions: 16 days after application
Source text: as §1
as §2, with “Johnsongrass” for “Palmer amaranth”, “16” for “18”, “5-A” for “1-A”
The results of the analysis are reported below in Table 5-B (dicamba+metribuzin), Table 5-C(acetochlor+metribuzin), and Table 5-D (acetochlor+dicamba).

[6] = test system: ryegrass; assay: Pre-emergence application in ryegrass under greenhouse conditions (Example 6); conditions: 16 days after application
Source text: as §1
as §2, with “ryegrass” for “Palmer amaranth”, “16” for “18”, “6-A” for “1-A”
The results of the analysis are reported below in Table 6-B (dicamba+metribuzin), Table 6-C(acetochlor+metribuzin), and Table 6-D (acetochlor+dicamba).

[7] = test system: Palmer amaranth; assay: Post-emergence application in Palmer amaranth under greenhouse conditions (Example 7); conditions: 24 days after application
Source text: (§3) The following testing protocol was employed to evaluate the post-emergence application of herbicides and herbicide combinations as described in the following examples unless otherwise specified. The weed species to be treated were planted in 3.5 inch pots containing redi-earth potting mix and grown under greenhouse conditions. When the weed species reached a height of about four inches, herbicide was applied at the specified application rate using a track sprayer with a flat even nozzle type, 9501E nozzle size, and spray pressure of 165 kPa. After the application of the herbicide(s), the pots were only sub-irrigated as needed. Throughout the test period, temperature was maintained from about 20° C. to about 30° C. and relative humidity was maintained at about 30%. The plants were rated visually and percentage of weed control was determined for each treatment at 15 to 21 days after herbicide application.
as §2, with “Post-emergence” for “Pre-emergence”, “24” for “18”, “7-A” for “1-A”
The results of the analysis are reported below in Table 7-B (glyphosate+dicamba), Table 7-C(glyphosate+metribuzin), and Table 7-D (dicamba+metribuzin).

[8] = test system: velvetleaf; assay: Post-emergence application in velvetleaf under greenhouse conditions (Example 8)
Source text: as §3
as §2, with “Post-emergence” for “Pre-emergence”, “velvetleaf” for “Palmer amaranth”, “24” for “18”, “8-A” for “1-A”
The results of the analysis are reported below in Table 8-B (glyphosate+dicamba), Table 8-C(glyphosate+metribuzin), and Table 8-D (dicamba+metribuzin).

CCOCN(C(=O)CCl)c1c(C)cccc1CC [Acetochlor, 2-chloro-N-(ethoxymethyl)-6′-ethyl-o-acetotoluidide]
PERCENT CONTROL ([1]; 840 g/ha): 65.8% | PERCENT CONTROL ([1]; 1260 g/ha): 90.8% | PERCENT CONTROL ([2]; 840 g/ha): 5.0% | PERCENT CONTROL ([2]; 1260 g/ha): 7.5% | PERCENT CONTROL ([3]; 840 g/ha): 74.2% | PERCENT CONTROL ([3]; 1260 g/ha): 84.0% | PERCENT CONTROL ([4]; 840 g/ha): 4.0% | PERCENT CONTROL ([4]; 1260 g/ha): 5.8% | PERCENT CONTROL ([5]; 840 g/ha): 94.8% | PERCENT CONTROL ([5]; 1260 g/ha): 100.0% | PERCENT CONTROL ([6]; 840 g/ha): 82.5% | PERCENT CONTROL ([6]; 1260 g/ha): 86.7%

COc1c(Cl)ccc(Cl)c1C(=O)O [Dicamba, 3,6-dichloro-2-methoxy benzoic acid]
PERCENT CONTROL ([1]; 280 g/ha): 88.3% | PERCENT CONTROL ([1]; 560 g/ha): 84.2% | PERCENT CONTROL ([2]; 280 g/ha): 38.0% | PERCENT CONTROL ([2]; 560 g/ha): 81.7% | PERCENT CONTROL ([3]; 280 g/ha): 43.3% | PERCENT CONTROL ([3]; 560 g/ha): 74.2% | PERCENT CONTROL ([4]; 280 g/ha): 42.0% | PERCENT CONTROL ([4]; 560 g/ha): 84.0% | PERCENT CONTROL ([5]; 280 g/ha): 71.7% | PERCENT CONTROL ([5]; 560 g/ha): 83.3% | PERCENT CONTROL ([6]; 280 g/ha): 31.7% | PERCENT CONTROL ([6]; 560 g/ha): 56.7% | PERCENT CONTROL ([7]; 280 g/ha): 100.0% | PERCENT CONTROL ([7]; 560 g/ha): 100.0% | PERCENT CONTROL (ACTUAL) ([8]; 280 g/ha, 24 days after application): 82.0% | PERCENT CONTROL (ACTUAL) ([8]; 560 g/ha, 24 days after application): 95.0% | PERCENT CONTROL (ACTUAL) ([8]; Table 8-D, velvetleaf, 24 days, dose 280 g/ha): 82.0% | PERCENT CONTROL (ACTUAL) ([8]; Table 8-D, velvetleaf, 24 days, dose 560 g/ha): 95.0%

CSc1nnc(C(C)(C)C)c(=O)n1N [Metribuzin, 4-amino-6-(1,1-dimethylethyl)-3-(methylthio)-1,2,4-triazin-5(4H)-one]
PERCENT CONTROL ([1]; 420 g/ha): 100.0% | PERCENT CONTROL ([1]; 840 g/ha): 100.0% | PERCENT CONTROL ([2]; 420 g/ha): 16.7% | PERCENT CONTROL ([2]; 840 g/ha): 63.8% | PERCENT CONTROL ([3]; 420 g/ha): 100.0% | PERCENT CONTROL ([3]; 840 g/ha): 100.0% | PERCENT CONTROL ([4]; 420 g/ha): 56.7% | PERCENT CONTROL ([4]; 840 g/ha): 100.0% | PERCENT CONTROL ([5]; 420 g/ha): 84.2% | PERCENT CONTROL ([5]; 840 g/ha): 100.0% | PERCENT CONTROL ([6]; 420 g/ha): 33.3% | PERCENT CONTROL ([6]; 840 g/ha): 66.7% | PERCENT CONTROL ([7]; 420 g/ha): 20.0% | PERCENT CONTROL ([7]; 840 g/ha): 26.0% | PERCENT CONTROL (ACTUAL) ([8]; Table 8-C, velvetleaf, 24 days, dose 420 g/ha): 22.0% | PERCENT CONTROL (ACTUAL) ([8]; Table 8-C, velvetleaf, 24 days, dose 840 g/ha): 68.0% | PERCENT CONTROL (ACTUAL) ([8]; Table 8-D, velvetleaf, 24 days, dose 420 g/ha): 22.0% | PERCENT CONTROL (ACTUAL) ([8]; Table 8-D, velvetleaf, 24 days, dose 840 g/ha): 68.0%
